Results on one molecule are retold here after patent US20250092058A1 (priority 2018, published 2025).

Each structure is given as a SMILES string.

One series has as its system PANC1 cells. In words: Matrigel CSC sphere formation. Format: cell-based, human. Conditions: 1, 10 and 100 nM, 20 days. The procedure:
Matrigel stem cell cultural assay. […] Spheres were maintained in Improved MEM containing 20 ng/ml epidermal growth factor, 10 ng/ml basic fibroblast growth factor, […] insulin and 0.4% Bovine Serum Albumin. PANC1cells were plated at a density of 1000 cells/well in 24-well ultralow attachment plates (Sigma-Aldrich). Briefly, 1000 PANC1 cells were suspended in […] medium and mixed thoroughly with […] BD Matrigel™ (BD Bioscience, San Jose, CA, USA). […] Upon solidification, FL118 treatment was administered. Spheres in each well were set in the plate to grow for 20 days and then quantitated visually under a microscope at the magnification of 10×.
To further confirm these findings, we alternatively used the typical matrigel-based CSC sphere formation assay which is know to more closely mimic in vivo situations. In this assay only drug resistant stem-like cancer cells are able to form spheres. […] We performed colony formation of CD44 stem cell marker-positive cells using the stem-cell culture condition. […] Thus, the GFPcODC-positive cell model may be an extremely drug resistant cell model or a less actual cell mimic system after transfection of the GFPcODC-expressing vector and selection process for obtaining GFPcODC-expressing cells, which may not fully mimic the CD44 stem cell marker-positive drug resistant cells. […]

A further series has as its system CRC PDX27454 tumors. Conditions: spray-dried FL118-HPβCD powder in saline with 5% PG, p.o. weekly ×4, half MTD. The procedure:
Colorectal cancer (CRC) patient-derived xenograft (PDX) models were used to evaluate their in vivo antitumor activity. […] Treatments were administered weekly for four weeks on days 0, 7, 14 and 21 and tumor volumes and individual body weights were monitored.
Human xenograft tumors used. In this invention disclose, human SW620 (colorectal), HT29 (colorectal) and HT-3 (retinoblastoma) cancer cell line-established xenograft tumors were used. Human tumor cell line-derived xenograft tumors are initially established by subcutaneously injecting 2-5×10^6 cultured cancer cells in a volume of 100-150 p L medium into the flank area of severe combined immunodeficiency (SCID) mice. The derived tumors are then passed a couple of generations in mice by transplanting 30-50 mg non-necrotic tumor mass via a trocar for experiments or maintenance. […] PDX tumors were originally established on severe Combined Immunodeficiency (SCID) mice from pancreatic and colorectal cancer patient tumor tissues obtained from metastatic sites of the disease in the clinic.
Specifically, PDX tumors were originally established on severe Combined Immunodeficiency (SCID) mice from pancreatic and colorectal cancer patient tumor tissues obtained from metastatic sites of the disease in the clinic. […] The vehicle is the same think aqueous suspension without drug. Experimental SCID mice were subcutaneously implanted with 30-40 mg individual PDX tumors (isolated from maintenance mice) at the flank area for PDX27454 of SCID mice. Treatment with vehicle or a drug of 7Q-series (2) was initiated 7-14 days after the transplanted tumors reached 100-200 mm^3 (designated day 0). The animal model of PDX tumors was orally treated weekly for 4 times (one cycle/course, as shown with black arrows) or only one time drug administration.

In a further series the test system is HCT116. Format: cell-based, human. Conditions: Table 13; MTT; HCT116 colorectal cancer.
Series [1] concerns survivin, Mcl-1, XIAP, cIAP2. In words: Western blots of anti-/pro-apoptotic proteins in PANC1 and Mia2. Format: cell-based, human. Particulars: 16 h to 48 h, dose-dependent.
Description: Western blotting/Immunoblotting. […] Fifty μg total protein from each sample were heated at 95° C. for 5 minutes after mixing with equal volume of 2×SDS loading buffer. Samples were separated on 12-15% SDS-polyacrylamide gel electrophoresis (SDS-PAGE) gels and electrotransferred to Pure Nitrocellulose Membranes (Bio-Rad, Hercules, CA). The membrane was then blocked in 5% skim milk in TBS-T buffer (20 mM Tris/HCl pH 7.5, 0.137 M NaCl, and 0.1% Tween 20) at room temperature for 2-3 hours. Next, the membrane was incubated with different primary antibodies in TBS-T containing 5% BSA overnight at 4° C. in the range of dilutions from 1:500 to 1:2000. After washing with TBS-T, the membrane was incubated in TBS-T buffer containing 5% skim milk and corresponding secondary antibody (1:5000) for 45-60 minutes at room temperature with shaking. Protein of interest was detected using Western Lightning Plus—ECL (Perkin Elmer, Waltham, MA) and visualized by various times (3-120 seconds) of exposure. Actin was detected as the internal control to normalize total protein loading for each sample.
The nature of series [2]: Stability of FL118 formulated suspension. Particulars: no observable change in antitumor efficacy vs freshly prepared.
The next series relates to PANC1 and Mia2 cells. In words: Western blots of caspase-3 activation and PARP cleavage. In kind it is cell-based, human. Particulars: 24 h, 10-500 nM. The procedure: Western blotting/Immunoblotting. […] Fifty μg total protein from each sample were heated at 95° C. for 5 minutes after mixing with equal volume of 2×SDS loading buffer. Samples were separated on 12-15% SDS-polyacrylamide gel electrophoresis (SDS-PAGE) gels and electrotransferred to Pure Nitrocellulose Membranes (Bio-Rad, Hercules, CA). […] Next, the membrane was incubated with different primary antibodies in TBS-T containing 5% BSA overnight at 4° C. in the range of dilutions from 1:500 to 1:2000. After washing with TBS-T, the membrane was incubated in TBS-T buffer containing 5% skim milk and corresponding secondary antibody (1:5000) for 45-60 minutes at room temperature with shaking. Protein of interest was detected using Western Lightning Plus—ECL (Perkin Elmer, Waltham, MA) and visualized by various times (3-120 seconds) of exposure. Actin was detected as the internal control to normalize total protein loading for each sample.
Next, we determined whether FL118-mediated inhibition of antiapoptotic proteins and induction of pro-apoptotic proteins shown in FIG. 1 would be accompanied by induction of apoptosis and cell killing.
Background: In western blotting, separated proteins are transferred to a membrane and probed.

A further series deals with PDX14244. Put plainly: Pancreatic cancer PDX14244 in SCID mice. Particulars: 5 mg/kg ip qw×4. Format: in vivo. How it is done:
Human pancreatic cancer patient-derived xenograft (PDX) tumor mouse model and treatment. Experiments followed the IACUC-approved mouse protocol. Briefly, human PDAC PDX tumors maintained on SCID mice were isolated, and a piece of non-necrotic tumor tissues (30-40 mg) were subcutaneously transplanted into the flank area of female SCID mice. […] In this study, we used the timesaving intraperitoneal (ip) route for drug administration. […] The formulation process was described in detail in our previous patent (PCT/US2011/058558). […] Tumor length (L) and width (W) were measured using digital vernier calipers 1-3 times per week until the end of experimental studies. The tumor volume (v) was calculated using the formula: v=0.5 (L×W^2). Then the tumor size was divided by the day 0 tumor size as percentage tumor size versus day 0. The mean tumor volume ± standard deviation (SD) at each time point was derived from 5 mice in each group. The tumor curves were made using Sigma Plot software.
It has been recently documented that pancreatic cancer PDXs retain active paracrine/Hedgehog signaling, and desmoplasia is active in PDX tumor mouse models.

Another series has as its system PANC1-GFPcODC cells. Put plainly: Trypan blue exclusion, PANC1-GFPcODC cells. In kind it is cell-based, human. Particulars: 4-day treatment; 20 μM cisplatin, 10 nM FL118, or both. The source says:
Generation of A2780-GFPcODC, A2780CP-GFPcODC and PANC1GFPcODC cells and fluorescence microscopy to detect stem-like and drug resistant green cells. The retroviral expression vector pQCXIN-ZsGreen-cODC (ornithine decarboxylase), containing a green fluorescence marker, was kindly provided by Dr. Frank Pajonk (Vlashi E, et al., In vivo imaging, tracking, and targeting of cancer stem cells. J Natl Cancer Inst. 2009; 101: 350-9). The retroviral particles collected from packaging cells that transfected with the above vector were infected into A2780, A2780CP and PANC1 cells, respectively. The transfected cell pool was used for experiments. […] Cell images were acquired digitally using the Olympus IX73 Inverted Score s (Olympus). Percentages of living cells were obtained from the average of the total cells counted from 10 microscopic fields.
Next, we applied the same system to generate pancreatic cancer PANC1-GFPcODC cells.

By IC50 is commonly meant the concentration at which inhibition is half-maximal. Low values mean inhibition by little substance, high ones a need for much substance.

Take `CC[C@@]1(O)C(=O)OCc2c1cc1n(c2=O)Cc2cc3cc4c(cc3nc2-1)OCO4` [FL118, 10,11-methylenedioxy-camptothecin]: the sphere formation result with PANC1 cells is recorded as “high efficacy in inhibiting sphere formation”. Besides, in the series on CRC PDX27454 tumors, the antitumor activity result is listed as “great antitumor activity” and the “toxicity (mouse body weight changes)” value is given as “no toxicity at all”. This molecule returned an IC50 in the series with HCT116 of 66.5 ± 11.2 nM. Moreover, the “expression of antiapoptotic proteins (XIAP, cIAP2, Mcl-1 or survivin)” value in series [1] is “differentially modulates the expression of antiapoptotic proteins”. Further, the “stability of formulated suspension for oral administration” value in series [2] is on record as “more than 12 months”. Moreover, in the series on PANC1 and Mia2 cells, the “caspase-3 activation and PARP cleavage” value was “strongly induces caspase-3 activation and PARP cleavage”. Also, the antitumor efficacy entry in the series with PDX14244 is “able to eliminate these PDX tumors after one cycle of treatment”. For the same molecule, in the series with PANC1-GFPcODC cells, the cell death is recorded as about 18%.
